Experimental data as given in patent US20180312473A1, “PHENAZINE DERIVATIVES AS ANTIMICROBIAL AGENTS” (priority 2015, published 2018).
Converted amounts (≈) assume the structure as drawn. Read-outs that look alike come from different tables or passages of the source. Marks after values point to notes of the source that are not given here.

Assays:
[1] = tested on: MRSA BAA-44; assay: MIC assay (broth microdilution, CLSI); details: Staphylococcus aureus, read-out: MIC, MRSA BAA-44
[2] = tested on: human red blood cells; assay: Hemolysis assay with red blood cells; details: human, 1 h, 200 μM, pH 7.2
Experimental: The hemolysis activities of select compounds of the invention were determined. […] The washing was repeated three times with the buffer. In 96-well plate, test compounds were added to the buffer from DMSO stocks. […] The plate was then incubated for 1 hour at 37° C. After incubation, the plate was centrifuged for 5 minutes at 3,500 rpm. Then 80 μL of the supernatant was transferred to another 96-well plate, and the optical density (OD) was read at 405 nm. DMSO served as the negative control (0% hemolysis), while Triton X served as the positive control (100% hemolysis). The percent of hemolysis was calculated as (OD405 of the compound−OD405 of DMSO)/(OD405 of Triton X−OD405 of the buffer).
The washing was repeated three times with the buffer. In 96-well plate, test compounds were added to the buffer from DMSO stocks. […] The plate was then incubated for 1 hour at 37° C. After incubation, the plate was centrifuged for 5 minutes at 3,500 rpm. Then 80 μL of the supernatant was transferred to another 96-well plate and the optical density (OD) was read at 405 nm. DMSO served as our negative control (0% hemolysis) while Triton X served as our positive control (100% hemolysis). The percent of hemolysis was calculated as (OD405 of the test compound−OD405 DMSO)/(OD405 Triton X−OD405 buffer) from three independent experiments.

[3] = tested on: K. pneumoniae 13883; assay: MIC assay (broth microdilution, CLSI); assay type: cell-based, Klebsiella pneumoniae; details: Klebsiella pneumoniae, 13883; read-out: K. pneumoniae 13883 MIC
[4] = tested on: A. baumannii 19606; assay: MIC assay (broth microdilution, CLSI); assay type: cell-based, Acinetobacter baumannii; details: Acinetobacter baumannii, 19606; read-out: A. baumannii 19606 MIC
[5] = tested on: MRSA-2 planktonic cells and biofilms; assay: Calgary Biofilm Device (CBD) assay, MBC/MBEC; assay type: cell-based, Staphylococcus aureus; details: for MBC: Staphylococcus aureus, MRSA
[6] = tested on: Staphylococcus epidermidis (ATCC 12228); assay: MIC assay (broth microdilution, CLSI); assay type: cell-based; details: Staphylococcus epidermidis, ATCC12228
[7] = tested on: E. coli UAEC-1; assay: MIC assay (broth microdilution, CLSI); assay type: cell-based; details: Escherichia coli, UAEC1; read-out: E. coli UAEC-1 MIC
[8] = tested on: P. aeruginosa (PAO1); assay: MIC assay (broth microdilution, CLSI); assay type: cell-based; details: Pseudomonas aeruginosa, PAO1; read-out: PAO1 MIC
[9] = tested on: Enterococcus faecium (ATCC 700221), VRE; assay: MIC assay (broth microdilution, CLSI); assay type: cell-based
[10] = tested on: Staphylococcus epidermidis (ATCC 35984), MRSE; assay: MIC assay (broth microdilution, CLSI); assay type: cell-based; details: for MIC: Staphylococcus epidermidis
[11] = tested on: MRSA-2 (methicillin-resistant Staphylococcus aureus clinical isolate); assay: MIC assay (broth microdilution, CLSI); assay type: cell-based; details: Staphylococcus aureus, MRSA, read-out: MIC, MRSA-2
[12] = tested on: MRSA BAA-1707; assay: MIC assay (broth microdilution, CLSI); details: Staphylococcus aureus, read-out: MIC, MRSA BAA-1707
[13] = in vitro; assay type: cell-based; details: human
Experimental: (§1) The cytotoxicities of select compounds of the invention against HeLa cells were determined. HeLa cytotoxicity was assessed using the LDH release assay described by CYTOTOX96 (Promega G1780). HeLa cells were grown in Dulbecco's Modified Eagle Medium (DMEM; Gibco) supplemented with 10% Fetal Bovine Serum (FBS) at 37° C. with 5% CO2. […] Triton X-100 (at 2% v/v) was used as the positive control for maximum lactate dehydrogenate (LDH) activity in this assay (e.g., complete cell death), while “medium only” lanes served as negative control lanes (e.g., no cell death). DMSO was used as the vehicle control. […] Finally, Stop Solution (50 μL) was added to the incubating plates, and the absorbance was measured at 490 nm.
(§2) HeLa cytotoxicity was assessed using the LDH release assay described by CYTOTOX96 (Promega G1780). HeLa cells were grown in Dulbecco's Modified Eagle Medium (DMEM; Gibco) supplemented with 10% Fetal Bovine Serum (FBS) at 37° C. with 5% CO2. […] Triton X-100 (at 2% v/v) was used as the positive control for maximum lactate dehydrogenate (LDH) activity in this assay (e.g., complete cell death), while “medium only” lanes served as negative control lanes (e.g., no cell death). DMSO was used as our vehicle control. […] Finally, Stop Solution (50 μL) was added to the incubating plates and the absorbance was measured at 490 nm. Results are from three independent experiments (FIG. 19)

[14] = tested on: HeLa cells; assay: in vitro; assay type: cell-based; details: human, 24 h
Experimental: as §1, §2

[15] = tested on: MRSA-1 (methicillin-resistant Staphylococcus aureus clinical isolate); assay: MIC assay (broth microdilution, CLSI); assay type: cell-based; details: Staphylococcus aureus, MRSA, Table 2A; read-out: MIC, MRSA-1
[16] = tested on: E. faecium 700221 (VRE); assay: MIC assay with Tiron or metal(II) cation co-treatment; assay type: cell-based, Enterococcus faecium; details: Enterococcus faecium, VRE
[17] = tested on: S. epidermidis 12228; assay: as above; assay type: cell-based, Staphylococcus epidermidis; details: Staphylococcus epidermidis
[18] = tested on: MRSA-2; assay: as above; assay type: cell-based, Staphylococcus aureus; details: Staphylococcus aureus
[19] = tested on: MRSE (S. epidermidis ATCC 35984) planktonic cells and biofilms; assay: Calgary Biofilm Device (CBD) assay, MBC/MBEC; assay type: cell-based, Staphylococcus epidermidis; details: for MBC: Staphylococcus epidermidis
[20] = Table 8, a/b 2-/4-fold range in independent experiments, read-out: MRSA-2 MBC
[21] = Table 2A, read-out: MIC, Staphylococcus epidermidis (ATCC 12228)
[22] = Table 7, b lowest concentration tested, read-out: MIC, S. epidermidis 12228
[23] = Enterococcus faecium, Table 2A, read-out: MIC, Enterococcus faecium (ATCC 700221)
[24] = Table 7, b lowest concentration tested, read-out: MIC, VRE 700221
[25] = Table 2A, read-out: MIC, Staphylococcus epidermidis (ATCC 35984)
[26] = Table 7, read-out: MIC, MRSE 35984
[27] = Table 7, a midpoint of 2-fold range, b lowest concentration tested

Compound	MIC [1]	% Hemolysis (200 μM) [2]	% Hemolysis at 200 μM [2]	MIC [3]	MIC [4]	MBC ([5]; Table 4, read-out: MBC, MRSA-2)	MBC [5, 20]	MIC [6, 21]	MIC [6, 22]	MIC [7]	MIC [8]	MIC [9, 23]	MIC [9, 24]	MIC [10, 25]	MIC [10, 26]	MIC ([11]; Table 2A)	MIC [11, 27]	melting point	MIC [12]	IC50 at 24 h [13]	other results
Cc1nc2c(Br)cc(Br)c(O)c2nc1C [Compound 27]	6.25 µM (≈ 2.07 µg/mL)	≤1%	≤1%	> 100 µM	> 100 µM	125 µM (≈ 41.5 µg/mL)	125 µM (≈ 41.5 µg/mL)	12.5 µM (≈ 4.15 µg/mL)	12.5 µM (≈ 4.15 µg/mL)	> 100 µM	> 100 µM	25 µM (≈ 8.3 µg/mL)	25 µM (≈ 8.3 µg/mL)								
Oc1cccc2nc3cc(Cl)c(Cl)cc3nc12 [Compound 21]		≤1%		> 100 µM	> 100 µM			> 100 µM	> 100 µM	> 100 µM	> 100 µM	> 100 µM	> 100 µM	> 100 µM	> 100 µM	> 100 µM	> 100 µM				
Oc1c(Cl)cc(I)c2nc3ccccc3nc12 [Compound 6, 2-Chloro-4-iodo-1-hydroxyphenazine]	1.56 µM (≈ 0.556 µg/mL)	5.1%				15.6 µM (≈ 5.56 µg/mL)	15.6 µM (≈ 5.56 µg/mL)	1.56 µM (≈ 0.556 µg/mL)	1.56 µM (≈ 0.556 µg/mL)			6.25 µM (≈ 2.23 µg/mL)	6.25 µM (≈ 2.23 µg/mL)	1.56 µM (≈ 0.556 µg/mL)	1.56 µM (≈ 0.556 µg/mL)	1.56 µM (≈ 0.556 µg/mL)	1.56 µM (≈ 0.556 µg/mL)	183 to 185 °C	1.56 µM (≈ 0.556 µg/mL)	> 100 µM	MBEC:MBC ratio, MRSA-2 ([5]; Table 4): 8.0; IC50 [14]: > 100 µM; MIC [15]: 1.56 µM (≈ 0.556 µg/mL)
Oc1c(Cl)cc(Br)c2nc3cc(Br)c(Br)cc3nc12 [Compound 15, 4,7,8-Tribromo-2-chloro-1-hydroxyphenazine]	25 µM (≈ 11.7 µg/mL)	2.1%	2.1%			25 µM (≈ 11.7 µg/mL)	25 µM (≈ 11.7 µg/mL)	0.05 to 0.1 µM (≈ 0.0234 to 0.0467 µg/mL)	0.08 µM (≈ 0.0374 µg/mL)			0.39 µM (≈ 0.182 µg/mL)	0.39 µM (≈ 0.182 µg/mL)	0.2 to 0.39 µM (≈ 0.0935 to 0.182 µg/mL)	0.3 to 0.59 µM (≈ 0.14 to 0.276 µg/mL)	12.5 µM (≈ 5.84 µg/mL)	12.5 µM (≈ 5.84 µg/mL)	242 to 244 °C		> 100 µM	MIC ([16]; E. faecium 700221, 200 μM CuSO4, read-out: MIC with Cu^2+): 12.5 µM; MIC ([16]; E. faecium 700221, 1 mM Tiron, read-out: MIC with Tiron): 0.78 µM; MIC ([16]; E. faecium 700221, no additive, read-out: MIC): 0.78 µM; MIC ([17]; S. epidermidis 12228, 200 μM CuSO4, read-out: MIC with Cu^2+): 50 µM; MIC ([17]; S. epidermidis 12228, 1 mM Tiron, read-out: MIC with Tiron): 0.1 µM; MIC ([17]; S. epidermidis 12228, no additive, read-out: MIC): 0.1 µM; MIC, MRSE 35984 ([10]; Table 7): 0.30^a μM; IC50 [14]: > 100 µM; MIC [15]: 6.25 µM (≈ 2.92 µg/mL); MIC ([18]; MRSA-2, 200 μM copper(II), read-out: MIC with Cu^2+): > 100 µM; MIC ([18]; MRSA-2, 1 mM Tiron, read-out: MIC with Tiron): 0.2 µM; MIC ([18]; MRSA-2, no additive (Table 9), read-out: MIC): 3.13 µM; MBC ([19]; Table 4, read-out: MBC, Staphylococcus epidermidis (ATCC 35984)): 1.56 µM (≈ 0.729 µg/mL); MBC ([19]; Table 8, read-out: MRSE 35984 MBC): 1.56 µM (≈ 0.729 µg/mL); MBEC, Staphylococcus epidermidis (ATCC 35984) ([19]; Table 4): 3.13 µM
COc1cccc2nc3cc(Cl)c(Cl)cc3nc12 [Compound 20, 7,8-Dichloro-1-methoxyphenazine]		1.5%		> 100 µM	> 100 µM			> 100 µM	> 100 µM	> 100 µM	> 100 µM	> 100 µM	> 100 µM	> 100 µM	> 100 µM	> 100 µM	> 100 µM				
Oc1c(Br)cc(Br)c2nccnc12 [Compound 25]	12.5 µM (≈ 3.8 µg/mL)	1.8%	1.8%		6.25 µM (≈ 1.9 µg/mL)	1500 µM (≈ 456 µg/mL)	1500 µM (≈ 456 µg/mL)	12.5 to 25 µM (≈ 3.8 to 7.6 µg/mL)	18.8 µM (≈ 5.71 µg/mL)	12.5 µM (≈ 3.8 µg/mL)	> 100 µM	100 µM (≈ 30.4 µg/mL)	100 µM (≈ 30.4 µg/mL)	12.5 to 25 µM (≈ 3.8 to 7.6 µg/mL)	18.8 µM (≈ 5.71 µg/mL)	25 µM (≈ 7.6 µg/mL)	25 µM (≈ 7.6 µg/mL)		6.25 µM (≈ 1.9 µg/mL)	> 100 µM	
